# Source: ChEMBL document CHEMBL1126876, “Synthesis of paraxanthine analogs (1,7-disubstituted xanthines) and other xanthines unsubstituted at the 3-position: structure-activity relationships at adenosine receptors” (J Med Chem, 1993)
# Tests used:
# [1] = biological target: Adenosine A2 receptor (Rattus norvegicus, UniProt P29276+P30543); experiment: Binding affinity against Adenosine A2 receptor in rat striatal membranes using [3H]5'-(N-ethylcarboxamido)-adenosine (NECA) as the ligand; assay type: cell membranes, Striatum, Membrane
# [2] = biological target: T1, Adenosine receptor A1 (Rattus norvegicus, UniProt P25099); experiment: Binding affinity at Adenosine A1 receptor in rat brain cortical membrane using [3H]N6-R-phenylisopropyladenosine (R-PIA) as radioligand; assay type: cell membranes
# T1 sequence (P25099 whole entry): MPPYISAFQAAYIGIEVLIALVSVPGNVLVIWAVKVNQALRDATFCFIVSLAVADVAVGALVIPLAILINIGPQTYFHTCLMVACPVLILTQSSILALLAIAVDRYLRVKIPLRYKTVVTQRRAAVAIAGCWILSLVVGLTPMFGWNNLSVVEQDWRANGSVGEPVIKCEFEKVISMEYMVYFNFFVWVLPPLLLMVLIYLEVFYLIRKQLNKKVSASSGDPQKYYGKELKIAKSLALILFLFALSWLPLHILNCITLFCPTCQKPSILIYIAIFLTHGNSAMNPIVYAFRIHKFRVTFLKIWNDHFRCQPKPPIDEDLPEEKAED
# [3] = biological target: T1, Adenosine receptor A1; experiment: Binding affinity at A1 adenosine receptor in rat brain cortical membrane using [3H]- N6-R-phenylisopropyladenosine (R-PIA); assay type: cell membranes
# [4] = biological target: T2, Adenosine receptor A1 (Rattus norvegicus) (UniProt P25099); experiment: Binding affinity at Adenosine A1 receptor in rat brain cortical membrane using [3H]- N6-R-phenylisopropyladenosine (R-PIA) at 250 uM; assay type: cell membranes
# T2 sequence (whole entry): T1 sequence (P25099 whole entry)
# [5] = biological target: T3, Adenosine A2 receptor (Rattus norvegicus) (UniProt P29276+P30543); conditions: Striatum, Membrane, at 250 µM
# Description: Binding affinity at Adenosine A2 receptor in rat striatal membrane using [3H]- 5'-N-ethylcarboxamidoadenosine (NECA) at 250 uM
# [6] = biological target: T2, Adenosine receptor A1 (Rattus norvegicus); experiment: Binding affinity at A1 adenosine receptor in rat brain cortical membrane using [3H]- N6-R-phenylisopropyladenosine (R-PIA) at 250 uM; assay type: cell membranes
# [7] = biological target: T3, Adenosine A2 receptor (Rattus norvegicus); experiment: Binding affinity at Adenosine A2 receptor in rat striatal membrane using [3H]- 5'-N-ethylcarboxamidoadenosine (NECA) at 20 uM; assay type: cell membranes; conditions: Striatum
# [8] = biological target: T3, Adenosine A2 receptor (Rattus norvegicus); experiment: Binding affinity at Adenosine A2 receptor in rat striatal membrane using [3H]- 5'-N-ethylcarboxamidoadenosine (NECA) at 200 uM; assay type: cell membranes; conditions: Striatum
# [9] = biological target: T2, Adenosine receptor A1 (Rattus norvegicus); experiment: Binding affinity at Adenosine A1 receptor in rat brain cortical membrane using [3H]- N6-R-phenylisopropyladenosine (R-PIA) at 100 uM; assay type: cell membranes
# [10] = biological target: T2, Adenosine receptor A1 (Rattus norvegicus); experiment: Binding affinity at Adenosine A1 receptor in rat brain cortical membrane using [3H]- N6-R-phenylisopropyladenosine (R-PIA) at 200 uM
# [11] = biological target: T3, Adenosine A2 receptor (Rattus norvegicus); experiment: Binding affinity at Adenosine A2 receptor in rat striatal membrane using [3H]- 5'-N-ethylcarboxamidoadenosine (NECA) at 1 uM; assay type: cell membranes; conditions: Striatum
# [12] = biological target: T3, Adenosine A2 receptor (Rattus norvegicus); experiment: Binding affinity at Adenosine A2 receptor in rat striatal membrane using [3H]- 5'-N-ethylcarboxamidoadenosine (NECA) at 200 uM; conditions: Striatum
# [13] = biological target: T2, Adenosine receptor A1 (Rattus norvegicus); conditions: Brain, at 250 µM
# [14] = biological target: T2, Adenosine receptor A1 (Rattus norvegicus); experiment: Binding affinity at Adenosine A1 receptor in rat brain cortical membrane using [3H]- N6-R-phenylisopropyladenosine (R-PIA); assay type: cell membranes; conditions: concentration not given here
Ki [1],Ki [2],SMILES,further results
13 µM,11 µM,O=c1[nH]c2[nH]cnc2c(=O)n1C1CCCC1,–
4.8 µM,0.82 µM,C#CCn1c(=O)c2[nH]cnc2n(C)c1=O,–
31 µM,3.7 µM,CCn1c(=O)c2nc[nH]c2n(CC)c1=O,–
0.58 µM,0.014 µM,CCCn1c(=O)[nH]c2[nH]c(C3CCCC3)nc2c1=O,–
26 µM,20 µM,C#CCn1c(=O)[nH]c2[nH]cnc2c1=O,–
9.7 µM,2.5 µM,CC(=O)Cn1c(=O)[nH]c2[nH]c(C3CCCC3)nc2c1=O,–
61 µM,–,CCCCn1c(=O)[nH]c2[nH]cnc2c1=O,–
33 µM,13 µM,CCCn1c(=O)[nH]c2[nH]cnc2c1=O,–
–,4 µM,CC(C)Cn1c(=O)c2nc[nH]c2n(CC(C)C)c1=O,–
37 µM,5.7 µM,CCCn1c(=O)c2nc[nH]c2n(C)c1=O,–
1.7 µM,0.17 µM,C#CCn1c(=O)[nH]c2[nH]c(C3CCCCC3)nc2c1=O,–
2.3 µM,–,CCn1c(=O)[nH]c2[nH]c(C3CCCCC3)nc2c1=O,–
61 µM,–,CCCn1c(=O)[nH]c(=O)c2[nH]c(-c3ccccc3)nc21,–
10 µM,9.2 µM,C=CCn1c(=O)[nH]c2[nH]cnc2c1=O,–
2.1 µM,0.1 µM,C=CCn1c(=O)c2[nH]c(-c3ccccc3)nc2n(C)c1=O,–
32 µM,21 µM,Cn1c(=O)[nH]c2ncn(C)c2c1=O [PARAXANTHINE],–
53 µM,–,CC(C)n1c(=O)[nH]c(=O)c2[nH]cnc21,inhibition [9]: 34%
26 µM,4.9 µM,O=c1[nH]c2[nH]cnc2c(=O)n1Cc1cccc(Cl)c1,–
6.4 µM,6.1 µM,C#CCn1c(=O)c2c(nc(-c3ccccc3)n2C)n(C)c1=O,–
59 µM,33 µM,Cn1cnc2[nH]c(=O)[nH]c(=O)c21 [7-METHYLXANTHINE],–

# Continued, compound first:
SMILES,Ki [1],Ki [2],further results
C=CCn1cnc2c1c(=O)[nH]c(=O)n2CC=C,36 µM,36 µM,–
O=c1[nH]c(=O)c2[nH]c(-c3ccccc3)nc2[nH]1,21 µM,–,Ki [3]: 2.5 µM
CCCn1c(=O)[nH]c(=O)c2[nH]c(C3CCCCC3)nc21,24 µM,–,–
O=c1[nH]c2nc(-c3ccccc3)[nH]c2c(=O)n1CCc1ccccc1,–,0.19 µM,–
Cn1c(=O)[nH]c2[nH]cnc2c1=O [1-METHYLXANTHINE],47 µM,36 µM,–
CCn1c(=O)c2nc[nH]c2n(C)c1=O,23 µM,–,–
CCCn1c(=O)[nH]c(=O)c2[nH]c(-c3ccc(S(=O)(=O)O)cc3)nc21,–,–,inhibition [4]: 40%; inhibition [5]: 44%
CCCn1cnc2c(=O)[nH]c(=O)[nH]c21,–,–,inhibition [6]: 42%; inhibition [5]: 15%
C#CCn1c(=O)[nH]c2[nH]c(-c3ccccc3)nc2c1=O,0.73 µM,0.21 µM,–
O=c1[nH]c2[nH]cnc2c(=O)n1Cc1ccccc1,22 µM,2.8 µM,–
O=c1[nH]c2[nH]cnc2c(=O)n1CCc1ccccc1,–,–,inhibition [7]: 0%
CCCn1cnc2[nH]c(=O)[nH]c(=O)c21,–,18 µM,inhibition [8]: 40%
O=c1[nH]c2nc(-c3ccccc3)[nH]c2c(=O)n1Cc1cccc(Cl)c1,–,–,Ki [3]: 0.068 µM
Cn1c(=O)[nH]c(=O)c2[nH]cnc21 [3-METHYLXANTHINE],59 µM,–,inhibition [9]: 24%
CCCCn1cnc2[nH]c(=O)[nH]c(=O)c21,66 µM,27 µM,–
O=c1[nH]c2nc[nH]c2c(=O)n1CCc1ccccc1,–,12 µM,–
Cn1c(=O)[nH]c2c(ncn2C)c1=O,–,–,inhibition [8]: 14%; inhibition [10]: 11%

SMILES,Ki [1],Ki [2],further results
C#CCn1c(=O)[nH]c2ncn(C)c2c1=O,16 µM,22 µM,–
CCCn1c(=O)n(C)c(=O)c2[nH]cnc21,19 µM,6.3 µM,–
Cn1c(=O)[nH]c(=O)c2[nH]c(-c3ccccc3)nc21,–,3.4 µM,inhibition [5]: 17%
CCCn1c(=O)[nH]c2[nH]c(-c3ccccc3)nc2c1=O,1.9 µM,–,–
CC(C)CCn1c(=O)c2nc[nH]c2n(CC(C)C)c1=O,11 µM,–,–
O=c1[nH]c2[nH]c(-c3ccccc3)nc2c(=O)n1Cc1cccc(Cl)c1,–,–,inhibition [11]: 32%
Cn1c(=O)[nH]c2[nH]c(-c3ccccc3)nc2c1=O,2.2 µM,0.26 µM,–
C#CCn1cnc2[nH]c(=O)n(C)c(=O)c21,14 µM,9.9 µM,–
CC(C)n1c(=O)n(C)c(=O)c2[nH]cnc21,16 µM,–,–
CCCn1c(=O)[nH]c2ncn(C)c2c1=O,29 µM,21 µM,–
CCCn1c(=O)[nH]c2nc(-c3ccc(S(=O)(=O)O)cc3)[nH]c2c1=O,24 µM,2.2 µM,–
O=c1[nH]c2[nH]c(-c3ccccc3)nc2c(=O)n1CCc1ccccc1,–,–,inhibition [11]: 0%
CN1CN(C)c2c(O)nc(O)nc21,–,–,inhibition [12]: 6%; inhibition [6]: 5%
Cn1cnc2c(=O)[nH]c(=O)n(C)c21,–,–,inhibition [8]: 11%; inhibition [13]: 42%
CC(C)Cn1c(=O)n(C)c(=O)c2nc[nH]c21 [ISOBUTYLMETHYLXANTHINE],16 µM,–,–
CCn1c(=O)[nH]c2[nH]c(-c3ccccc3)nc2c1=O,1.8 µM,0.15 µM,–
Cn1c(=O)[nH]c(=O)c2[nH]c(-c3ccc(S(=O)(=O)O)cc3)nc21,–,–,inhibition [5]: 16%; inhibition [14]: 5%
